The values that follow come from ChEMBL document CHEMBL1201862, “PubChem BioAssay data set” (2004).

Some test systems named below: K562; NCI-H23; U-251; SR; OVCAR-3; SNB-75; TK-10; EKVX; A549; LXFL 529; SN12C; CCRF-CEM; HOP-62; UACC-257; NCI-H460; HL-60; MDA-MB-435; Hs-578T; NCI/ADR-RES; T47D.
Common to all, as to assay: NCI-60 cell line screen, 48 h

SMILES strings stand for the structures.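 How tested: cells in 96-well plates exposed to compound for 48 hours at five concentrations. GI50 is the concentration that inhibits growth by half.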 Active and inactive are the calls of the source. Cut-off read from the data, not from the text of the source: active = GI50 up to about 1.1 µM and inactive = higher.

As to `O=C1[C@@H]2C(c3ccccc3[N+](=O)[O-])=[N+](c3ccccc3)O[C@@H]2C(=O)N1c1ccc(Cc2ccc(N3C(=O)[C@H]4C(c5ccccc5[N+](=O)[O-])=[N+](c5ccccc5)O[C@H]4C3=O)cc2)cc1`, the GI50 with K562, with NCI-H23, in the test on U-251, in the test with SR, in the test on OVCAR-3 and in the test with SNB-75 was > 100 µM (inactive) throughout. Further, the GI50 in the test with TK-10 is > 100 µM (inactive); with EKVX, > 100 µM (inactive); with A549 it was > 100 µM (inactive); in the test with LXFL 529, 94.6 µM (inactive); with SN12C, > 100 µM (inactive); with CCRF-CEM it was > 100 µM (inactive). The GI50 with HOP-62, in the test with UACC-257, with NCI-H460 and in the test on HL-60 was > 100 µM (inactive) each time.

`O=[N+]([O-])c1ccc(-c2ccc(-c3csc(Nc4ccccc4)n3)o2)cc1`: the GI50 in the test with K562 was 7.59 µM (inactive); with NCI-H23, 20.2 µM (inactive); with U-251 it was 19.6 µM (inactive); with SR, 1.9 µM (inactive); in the test with OVCAR-3 it was 19.3 µM (inactive); with SNB-75, 24.9 µM (inactive). The GI50 was 19.1 µM (inactive) with TK-10; 19.1 µM (inactive) in the test with EKVX; > 55 µM (inactive) with A549; 18.6 µM (inactive) in the test with LXFL 529; 18.6 µM (inactive) in the test with SN12C; 2.93 µM (inactive) with CCRF-CEM. Further, the GI50 with HOP-62 is > 68.4 µM (inactive); with UACC-257, 17.9 µM (inactive); with NCI-H460 it was 34.8 µM (inactive); in the test on HL-60 it was 2.48 µM (inactive).

In the case of `O=C(Nc1ccc(Cl)c(C(F)(F)F)c1)C(=O)C(C(=O)/C=C/c1ccccc1)C1OC(=O)c2ccccc21` (configuration not stated), the GI50 in the test with K562 was > 100 µM (inactive); with NCI-H23 it was > 100 µM (inactive); in the test with U-251, 51.9 µM (inactive); with SR it was > 100 µM (inactive); in the test on OVCAR-3, > 100 µM (inactive); in the test on SNB-75, > 100 µM (inactive). Further, the GI50 is > 100 µM (inactive) with TK-10; > 100 µM (inactive) with EKVX; > 100 µM (inactive) with A549; 57.4 µM (inactive) with LXFL 529; > 100 µM (inactive) in the test on SN12C; > 100 µM (inactive) in the test with CCRF-CEM. Further, the GI50 in the test with HOP-62, with UACC-257, in the test with NCI-H460 and with HL-60 was > 100 µM (inactive) throughout.

Consider `O=[N+]([O-])c1ccc(Cc2nc3ccccc3s2)cc1`, for which the GI50 with K562 was 43.7 µM (inactive); in the test with NCI-H23 it was > 100 µM (inactive); in the test with U-251, 44.8 µM (inactive); in the test with SR it was 46 µM (inactive); in the test on OVCAR-3, > 100 µM (inactive); in the test with SNB-75, > 100 µM (inactive). Further, the GI50 is > 100 µM (inactive) in the test with TK-10; > 100 µM (inactive) with EKVX; > 100 µM (inactive) in the test on A549; 61 µM (inactive) in the test with LXFL 529; 36.1 µM (inactive) with SN12C; 33.3 µM (inactive) with CCRF-CEM. In addition, the GI50 is > 100 µM (inactive) in the test on HOP-62, > 100 µM (inactive) with UACC-257, > 100 µM (inactive) in the test on NCI-H460 and 63.4 µM (inactive) in the test on HL-60.

Turning to `CCN(CC)CCC(=O)O[C@H]1CC[C@H](CC(C)[C@H]2CC(=O)C(C)C=C(C)[C@H](OC(=O)CCN(CC)CC)C(OC)C(=O)[C@@H](C)CC(C)/C=C/C=C/C=C(C)C(OC)CC3CC[C@H](C)[C@](O)(O3)C(=O)C(=O)N3CCCCC3C(=O)O2)CC1OC` (some centres not stated), the GI50 with MDA-MB-435 is 0.264 µM (active); in the test with NCI-H23 it was 0.161 µM (active); with Hs-578T, 0.0345 µM (active); with U-251, 0.0883 µM (active); in the test with OVCAR-3, 0.202 µM (active); in the test with SNB-75 it was 0.0179 µM (active). For the same molecule, the GI50 in the test with TK-10 is 0.627 µM (active); in the test on EKVX, 0.025 µM (active); in the test with NCI/ADR-RES it was 0.697 µM (active); in the test on A549 it was 0.251 µM (active); with LXFL 529, < 0.01 µM (active); in the test with SN12C, 0.0847 µM (active). Besides, the GI50 in the test with CCRF-CEM was < 0.0119 µM (active); in the test with HOP-62, < 0.01 µM (active); in the test on UACC-257 it was 1.32 µM (inactive); in the test on NCI-H460 it was 0.157 µM (active); with T47D it was 0.0144 µM (active).

For the molecule `CC1(C)C(=O)/C=C\C(=O)C(C)(C)C(=O)/C=C\C(=O)C(C)(C)C(=O)/C=C\C(=O)C(C)(C)C(=O)/C=C\C1=O`, the GI50 in the test on MDA-MB-435 is 31.2 µM (inactive); in the test on K562, 5.43 µM (inactive); with NCI-H23, 21.4 µM (inactive); in the test on Hs-578T it was > 100 µM (inactive); with U-251, 27.7 µM (inactive); in the test with SR it was 3.94 µM (inactive). In addition, the GI50 in the test on OVCAR-3 is 23.8 µM (inactive); in the test with SNB-75 it was > 60 µM (inactive); with TK-10, > 55.2 µM (inactive); in the test with EKVX it was 39.6 µM (inactive); in the test with A549, > 70.8 µM (inactive); in the test with LXFL 529 it was 7.28 µM (inactive). Moreover, the GI50 is 24.3 µM (inactive) in the test on SN12C; 3.51 µM (inactive) in the test on CCRF-CEM; > 100 µM (inactive) in the test with HOP-62; 23.3 µM (inactive) in the test with UACC-257; 56.6 µM (inactive) in the test on NCI-H460; 3 µM (inactive) with HL-60. Also, the GI50 with T47D was 30.8 µM (inactive).

Regarding `CCOC(=O)/C(=C\c1cccs1)P(=O)(OCC)OCC`, the GI50 in the test on K562 was 29.9 µM (inactive); in the test with NCI-H23, 18.9 µM (inactive); with U-251 it was 20.2 µM (inactive); in the test with SR, 19.1 µM (inactive); in the test on OVCAR-3, 19.8 µM (inactive); with SNB-75, 35.6 µM (inactive). The GI50 in the test with TK-10 is 36.6 µM (inactive); with EKVX, 23.8 µM (inactive); in the test on A549 it was 21 µM (inactive); in the test on LXFL 529, 18.6 µM (inactive); with SN12C it was 19.7 µM (inactive); with CCRF-CEM, 29.9 µM (inactive). Further, the GI50 in the test on HOP-62 is 48.2 µM (inactive); in the test with UACC-257 it was 23.2 µM (inactive); with NCI-H460 it was 20.1 µM (inactive); with HL-60 it was 13.9 µM (inactive).

For the molecule `CN1C/C(=C\c2ccc(C(=O)O)cc2)C(=O)/C(=C/c2ccc(C(=O)O)cc2)C1`, the GI50 in the test with K562, in the test on NCI-H23, in the test with U-251, in the test on SR, in the test with OVCAR-3 and in the test with SNB-75 was > 100 µM (inactive) throughout. The GI50 in the test with TK-10, with EKVX, with A549, in the test with LXFL 529, in the test with SN12C and in the test on CCRF-CEM was > 100 µM (inactive) each time. Besides, the GI50 with HOP-62, with UACC-257, with NCI-H460 and with HL-60 was > 100 µM (inactive) throughout.
